Experimental data: patent US20040019018A1, “Rigid pyrrolidone modulators of pkc” (priority 2003, published 2004)

Legend:
δ-PKC = target: T1, δ-PKC (Homo sapiens, UniProt Q05655); experiment: [3H]PDBu displacement from recombinant PKC isozyme (baculovirus); assay type: binding; settings: [3H]PDBu competition
T1 construct: made in house; host or cells: Sf9 cells (baculovirus)
Protocol: (§1) These procedures are described below. […] (See the key that follows)
(§2) Analysis of [20-^3H]phorbol 12,13-dibutyrate binding to PKC. […] [^3H]PDBu (20.0 Ci/mmol) was obtained from New England Nuclear. Phosphatidylserine and bovine […] were obtained from Sigma Chemical Co. Binding was determined in an incubation volume of 250 μl, containing [^3H]PDBu, PKC, 0.05 M Tris-Cl, pH 7.4, 100 μg/ml phosphatidylserine, various concentrations of the ligand being assayed for competition of [^3H]PDBu binding, and bovine […] at 1 mg/ml. In the case of the classical PKCs (α, β, […]) CaCl2 was included at a concentration of 0.1 mM. Liposomes of phosphatidylserine were prepared as follows. The phosphatidylserine solutions were dried down from CHCl3 under a stream of N2. After addition of 0.05 M Tris-Cl, pH 7.4, liposomes were prepared by sonication for 30 sec with the microtip probe of Sonifier Cell Disrupter (Heat Systems-Ultrasonics). [^3H]PDBu was used at a concentration twice the Kd previously determined for the specific receptor. Ligands were assayed over a concentration range of 3 orders of magnitude. Ligands were diluted in 0.05 M Tris-Cl, pH 7.4 containing 1 mg/ml bovine g-globulin. If the compounds were not soluble at the highest concentration used, they were dissolved in organic solvent (CHCl3 or ethanol) and mixed with the phosphatidylserine dissolved in CHCl3. The solvent was removed under a stream of N2.
(§3) Mixed liposomes were then prepared, as described for the preparation of the liposomes of phosphatidylserine alone, by the addition of 0.05 M Tris-Cl, pH 7.4, and sonication for 30 sec with the microtip probe of a Sonifier Cell Disrupter (Heat Systems-Ultrasonics). Incubation was for 5 min at 37° C. […] After vigorous mixing, the samples were incubated for 15 min to allow precipitation of the receptor. The precipitate was recovered by centrifugation at 12,000 rpm in a Beckman microcentrifuge at 4° C. […] This value provided a measure of the concentration of unbound [^3H]PDBu. The remainder of the supernatant was removed by aspiration and blotting with absorbent tissue. The tip of the centrifuge tube was cut off and the radioactivity in the pellet measured to determine total bound [^3H]PDBu. Non-specific binding of [^3H]PDBu was measured in the presence of 30 μM non-radioactive PDBu and used to determine an apparent partition coefficient for [^3H]PDBu under these assay conditions.
(§4) Specific binding represents the difference between total binding and the non-specific binding, where the latter value was calculated from the partition coefficient and the measured free [^3H]PDBu concentration in each tube. In each experiment, triplicate determinations were performed at each concentration of competing ligand. A half-maximal inhibitory concentration of inhibitor and a Ki for the inhibitor was determined by computer fit of the data points to the equation B(I)/B(O)=(L+Kd)/(Kd+(Kd/Ki)(I)+L), where B(I) represents the amount of [^3H]PDBu specifically bound in the presence of inhibitor, B(O) represents the amount specifically bound in the absence of inhibitor, L is the concentration of [^3H]PDBu, Kd is the measured dissociation constant for [^3H]PDBu, Ki is the dissociation constant for the inhibitor, and I is the concentration of inhibitor.
(§5) Expression of PKC isozymes in baculovirus. […] After 60-72 hr, the cells were centrifuged (1000 rpm, 10 min) and washed twice with phosphate buffered saline, and the pelleted cells kept at −70° C. until used.
(§6) For purification of the individual PKC isozymes, the cell pellet was resuspended in […] of a homogenization buffer of the following composition; 20 mM Tris-Cl, pH 8.0, 5 mM EDTA, 5 mM EGTA, 0.3% (v/v) 2-mercaptoethanol, 10 mM benzamidine, 50 μg/ml phenylmethylsulfonyl fluoride, and 250 μg/ml leupeptin. The cells were disrupted in a Potter-Elvehjem homogenizer at 4° C., and the homogenate is centrifuged at 100,000×g for 60 min.

β-PKC = target: T2, β-PKC (Homo sapiens, UniProt P05771); experiment: as above; assay type: binding; settings: [3H]PDBu competition
T2 construct: made in house; host or cells: Sf9 cells (baculovirus)
Protocol: as §1, §2, §3, §4, §5, §6

T1 sequence (Q05655 whole entry): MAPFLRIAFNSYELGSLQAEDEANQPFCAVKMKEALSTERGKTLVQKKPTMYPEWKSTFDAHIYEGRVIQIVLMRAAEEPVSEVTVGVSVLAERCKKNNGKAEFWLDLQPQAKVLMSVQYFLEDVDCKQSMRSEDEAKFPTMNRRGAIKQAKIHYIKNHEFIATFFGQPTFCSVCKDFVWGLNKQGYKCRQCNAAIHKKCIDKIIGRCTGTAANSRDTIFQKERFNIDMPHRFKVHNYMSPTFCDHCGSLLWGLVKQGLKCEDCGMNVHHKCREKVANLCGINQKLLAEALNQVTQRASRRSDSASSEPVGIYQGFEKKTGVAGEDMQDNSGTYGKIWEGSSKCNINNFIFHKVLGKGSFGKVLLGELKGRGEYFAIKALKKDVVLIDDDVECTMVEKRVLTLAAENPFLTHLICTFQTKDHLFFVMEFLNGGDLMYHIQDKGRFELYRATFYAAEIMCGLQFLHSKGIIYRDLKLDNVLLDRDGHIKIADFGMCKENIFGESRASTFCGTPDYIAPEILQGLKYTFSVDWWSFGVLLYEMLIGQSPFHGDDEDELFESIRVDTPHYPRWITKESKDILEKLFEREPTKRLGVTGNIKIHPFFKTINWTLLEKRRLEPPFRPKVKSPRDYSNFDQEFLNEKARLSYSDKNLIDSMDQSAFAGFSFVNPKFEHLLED
T2 sequence (P05771 whole entry): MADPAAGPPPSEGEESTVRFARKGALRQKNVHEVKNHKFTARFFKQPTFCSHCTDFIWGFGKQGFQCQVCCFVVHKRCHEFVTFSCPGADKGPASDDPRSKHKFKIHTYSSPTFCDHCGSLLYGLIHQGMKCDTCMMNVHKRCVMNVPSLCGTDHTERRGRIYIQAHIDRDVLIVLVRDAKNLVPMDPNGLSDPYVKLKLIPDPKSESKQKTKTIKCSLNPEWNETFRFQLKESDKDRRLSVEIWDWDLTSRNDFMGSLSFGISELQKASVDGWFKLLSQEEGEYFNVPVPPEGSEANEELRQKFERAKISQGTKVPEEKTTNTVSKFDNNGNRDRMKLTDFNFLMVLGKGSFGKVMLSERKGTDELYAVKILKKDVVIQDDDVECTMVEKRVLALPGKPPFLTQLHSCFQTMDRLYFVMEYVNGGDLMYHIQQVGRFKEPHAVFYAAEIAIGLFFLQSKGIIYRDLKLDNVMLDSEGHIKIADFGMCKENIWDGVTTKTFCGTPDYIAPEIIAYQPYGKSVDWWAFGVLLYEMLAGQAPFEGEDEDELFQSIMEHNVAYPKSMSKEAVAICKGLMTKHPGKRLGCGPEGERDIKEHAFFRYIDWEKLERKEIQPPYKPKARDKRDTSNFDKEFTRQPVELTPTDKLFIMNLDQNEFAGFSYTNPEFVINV

Ki (δ-PKC) [µM] | Ki (β-PKC) [µM] | Structure (SMILES)
0.623 ± 0.318 | 1.61 ± 0.257 | CCCCCCCCCCCC(=O)Oc1cc2c(cc1Br)[C@@H]1[C@@H](CO)NC(=O)[C@@H]1[C@]2(C)C(C)C [Compound 5, (3S, 8S, 9S, 10S)-5-bromo-6-dodecanoyloxyl-3-hydroxymethyl-8-isopropyl-8-methyl-3,3a,8,8a-tetrahydro-2H -2-aza-cyclopenta[a]inden-1-one]
 | > 10 | CCCCCCCCCCCC(=O)Oc1cc2c(cc1C(C)=O)[C@@H]1[C@@H](CO)NC(=O)[C@@H]1[C@@]2(C)C(C)C [Compound 11, (3S, 8R, 9S, 10S)-5-acetyl-6-dodecanoyloxyl-3-hydroxymethyl-8-isopropyl-8-methyl-3,3a,8,8a-tetrahydro-2H -2-aza-cyclopenta[a]inden-1-one]

The remaining lines, values behind:

Structure (SMILES) | Ki (δ-PKC) [µM] | Ki (β-PKC) [µM]
CCCCCCCCC#Cc1ccc2c(c1)C(C)(C(C)C)C1C(=O)NC(CO)C21 [Compound 1, (3S, 8R, 9S, 10S)-6-(dec-1′-ynyl)-3-hydroxymethyl-8-isopropyl-8-methyl-3,3a,8,8a-tetrahydro-2H-2-aza-cyclopenta[a]inden-1-one] | 1.63 ± 0.391 | 
CCCCCCCCCCCC(=O)Oc1cc2c(cc1C(C)=O)[C@@H]1[C@@H](CO)NC(=O)[C@@H]1[C@]2(C)C(C)C [Compound 4, (3S, 8S, 9S, 10S)-5-acetyl-6-dodecanoyloxyl-3-hydroxymethyl-8-isopropyl-8-methyl-3,3a,8,8a-tetrahydro-2H -2-aza-cyclopenta[a]inden-1-one] | 4.37 ± 0.214 | 8.49 ± 3.31
CCCCCCCCCCCC(=O)Oc1ccc2c(c1)[C@@](C)(C(C)C)[C@H]1C(=O)N[C@H](CO)[C@@H]21 [Compound 3, (3S, 8S, 9S, 10S)-6-dodecanoyloxyl-3-hydroxymethyl-8-isopropyl-8-methyl-3,3a,8,8a-tetrahydro-2H -2-aza-cyclopenta[a]inden-1-one] | 0.15 ± 0.064 | 1.05 ± 0.284
CCCCCCCCCCCC(=O)Oc1ccc2c(c1)[C@](C)(C(C)C)[C@H]1C(=O)N[C@H](CO)[C@@H]21 [Compound 2, (3S, 8R, 9S, 10S)-6-dodecanoyloxyl-3-hydroxymethyl-8-isopropyl-8-methyl-3,3a,8,8a-tetrahydro-2H -2-aza-cyclopenta[a]inden-1-one] | 1.37 ± 0.329 | 0.593 ± 0.178
